These results are taken from PubChem BioAssay AID1259407 (Chemical Carcinogenesis Research Information System (CCRIS), 2018).

Calls of active or inactive are those of the source. How the calls were made is not given here.

For the data set, the system named is CCRIS mutagenicity, Ames/micronucleus/aberration tests. In words: CCRIS mutagenicity studies.
[1] abbreviates: Test System: AMES SALMONELLA TYPHIMURIUM, Strain/Indicator: TA98, Metabolic Activation: NONE, Method: STANDARD PLATE.
Setting [2] is: Test System: AMES SALMONELLA TYPHIMURIUM, Strain/Indicator: TA98, Metabolic Activation: RAT, LIVER, S-9, AROCLOR 1254, Method: STANDARD PLATE.
The mark [3] stands for this setting: Test System: AMES SALMONELLA TYPHIMURIUM, Strain/Indicator: TA100, Metabolic Activation: NONE, Method: PREINCUBATION
Where [4] appears, read: Test System: AMES SALMONELLA TYPHIMURIUM, Strain/Indicator: TA100, Metabolic Activation: NONE, Method: STANDARD PLATE.
Where [5] appears, read: Test System: AMES SALMONELLA TYPHIMURIUM, Strain/Indicator: TA100, Metabolic Activation: RAT, LIVER, S-9, AROCLOR 1254, Method: PREINCUBATION
[6] abbreviates: Test System: AMES SALMONELLA TYPHIMURIUM, Strain/Indicator: TA100, Metabolic Activation: RAT, LIVER, S-9, AROCLOR 1254, Method: STANDARD PLATE.
The mark [7] stands for this setting: Test System: AMES SALMONELLA TYPHIMURIUM, Strain/Indicator: TA1535, Metabolic Activation: NONE, Method: STANDARD PLATE.
Setting [8] is: Test System: AMES SALMONELLA TYPHIMURIUM, Strain/Indicator: TA1537, Metabolic Activation: NONE, Method: STANDARD PLATE.
The mark [9] stands for this setting: Test System: AMES SALMONELLA TYPHIMURIUM, Strain/Indicator: TA1538, Metabolic Activation: NONE, Method: STANDARD PLATE.
Setting [10] is: Test System: E. COLI, Strain/Indicator: WP2, Metabolic Activation: NONE, Method: STANDARD PLATE.

Regarding `CCOc1ccc(N=O)cc1`, the mutagenic call was “active; positive” under setting [1]; “active; positive” under setting [2]; “active; positive” (Test System: AMES SALMONELLA TYPHIMURIUM, Strain/Indicator: TA100(NR), Metabolic Activation: NONE, Method: PREINCUBATION); “active; positive” (Test System: AMES SALMONELLA TYPHIMURIUM, Strain/Indicator: TA100(NR), Metabolic Activation: NONE, Method: STANDARD PLATE); “active; positive” (Test System: AMES SALMONELLA TYPHIMURIUM, Strain/Indicator: TA100(NR), Metabolic Activation: RAT, LIVER, S-9, AROCLOR 1254, Method: PREINCUBATION); “active; positive” (Test System: AMES SALMONELLA TYPHIMURIUM, Strain/Indicator: TA100(NR), Metabolic Activation: RAT, LIVER, S-9, AROCLOR 1254, Method: STANDARD PLATE). In addition, the mutagenic call runs as follows: (Test System: AMES SALMONELLA TYPHIMURIUM, Strain/Indicator: TA100, Metabolic Activation: HAMSTER, LIVER, S-9, KANECHLOR 400, Method: PREINCUBATION) “active; positive”; under setting [3], “active; positive”; under setting [4], “active; positive”; under setting [5], “active; positive”; under setting [6], “active; positive”; (Test System: AMES SALMONELLA TYPHIMURIUM, Strain/Indicator: TA100TN5-1,8-DNP1011, Metabolic Activation: NONE, Method: PREINCUBATION) “active; positive”. For the same molecule, the mutagenic call by setting is: (Test System: AMES SALMONELLA TYPHIMURIUM, Strain/Indicator: TA100TN5-1,8-DNP1011, Metabolic Activation: NONE, Method: STANDARD PLATE) “active; positive”; (Test System: AMES SALMONELLA TYPHIMURIUM, Strain/Indicator: TA100TN5-1,8-DNP1011, Metabolic Activation: RAT, LIVER, S-9, AROCLOR 1254, Method: PREINCUBATION) “active; positive”; (Test System: AMES SALMONELLA TYPHIMURIUM, Strain/Indicator: TA100TN5-1,8-DNP1011, Metabolic Activation: RAT, LIVER, S-9, AROCLOR 1254, Method: STANDARD PLATE) “active; positive”; (Test System: AMES SALMONELLA TYPHIMURIUM, Strain/Indicator: TA100TN5-1,8-DNP1012, Metabolic Activation: NONE, Method: PREINCUBATION) “active; positive”; (Test System: AMES SALMONELLA TYPHIMURIUM, Strain/Indicator: TA100TN5-1,8-DNP1012, Metabolic Activation: NONE, Method: STANDARD PLATE) “active; positive”; (Test System: AMES SALMONELLA TYPHIMURIUM, Strain/Indicator: TA100TN5-1,8-DNP1012, Metabolic Activation: RAT, LIVER, S-9, AROCLOR 1254, Method: PREINCUBATION) “active; positive”. Further, the mutagenic call (Test System: AMES SALMONELLA TYPHIMURIUM, Strain/Indicator: TA100TN5-1,8-DNP1012, Metabolic Activation: RAT, LIVER, S-9, AROCLOR 1254, Method: STANDARD PLATE) was “active; positive”.

As to `CS(=O)CCC(=O)N1[C@@H](c2ccccc2O)SC[C@H]1C(=O)O` (stereo partly specified), the mutagenic call is “inactive; negative” under setting [1]; “inactive; negative” under setting [4]; “inactive; negative” under setting [7]; “inactive; negative” under setting [8]; “inactive; negative” under setting [9]; “inactive; negative” under setting [10]. Moreover, the mutagenic call (Test System: E. COLI, Strain/Indicator: WP2 UVRA, Metabolic Activation: NONE, Method: STANDARD PLATE) is “inactive; negative”.

As for `C[C-](C)[N+](=O)[O-]`, the mutagenic call reads like this: (Test System: AMES SALMONELLA TYPHIMURIUM, Strain/Indicator: TA98, Metabolic Activation: NONE, Method: PREINCUBATION) “active; positive”; (Test System: AMES SALMONELLA TYPHIMURIUM, Strain/Indicator: TA98, Metabolic Activation: RAT, LIVER, S-9, AROCLOR 1254, Method: PREINCUBATION) “active; positive”; under setting [3], “active; positive”; under setting [5], “active; positive”; (Test System: AMES SALMONELLA TYPHIMURIUM, Strain/Indicator: TA100, Metabolic Activation: RAT, LIVER, S-9, AROCLOR, Method: PREINCUBATION) “active; positive”; (Test System: AMES SALMONELLA TYPHIMURIUM, Strain/Indicator: TA102, Metabolic Activation: NONE, Method: PREINCUBATION) “active; positive”. For the same molecule, the mutagenic call (Test System: AMES SALMONELLA TYPHIMURIUM, Strain/Indicator: TA102, Metabolic Activation: RAT, LIVER, S-9, AROCLOR 1254, Method: PREINCUBATION) is “active; positive”; the mutagenic call (Test System: AMES SALMONELLA TYPHIMURIUM, Strain/Indicator: TA102, Metabolic Activation: RAT, LIVER, S-9, AROCLOR, Method: PREINCUBATION) was “active; positive”; the mutagenic call (Test System: UDS CHINESE HAMSTER V-79 CELLS, Metabolic Activation: NONE, Method: AUTORADIOGRAPHY) is “active; positive”; the mutagenic call (Test System: UDS CHINESE HAMSTER V-79 CELLS, Strain/Indicator: V-79-MZ/CYTIDINE INCORPORATION, Metabolic Activation: NONE, Method: AUTORADIOGRAPHY) is “inactive; negative”; the mutagenic call (Test System: UDS CHINESE HAMSTER V-79 CELLS, Strain/Indicator: V-79-RHST20/CYTIDINE INCORPORATION, Metabolic Activation: NONE, Method: AUTORADIOGRAPHY) is “inactive; negative”; the mutagenic call (Test System: UDS CHINESE HAMSTER V-79 CELLS, Strain/Indicator: V-79-RHSTA/CYTIDINE INCORPORATION, Metabolic Activation: NONE, Method: AUTORADIOGRAPHY) was “inactive; negative”. For the same molecule, the mutagenic call (Test System: UDS CHINESE HAMSTER V-79 CELLS, Strain/Indicator: V-79-RPST-IV/CYTIDINE INCORPORATION, Metabolic Activation: NONE, Method: AUTORADIOGRAPHY) is “active; positive”; the mutagenic call (Test System: UDS HUMAN HEPATOCYTES, Strain/Indicator: THY INCORP, Metabolic Activation: NONE, Method: AUTORADIOGRAPHY) is “active; positive”; the mutagenic call (Test System: UDS MOUSE HEPATOCYTES, Strain/Indicator: THY INCORP, Metabolic Activation: NONE, Method: AUTORADIOGRAPHY) was “active; positive”; the mutagenic call (Test System: UDS RAT HEPATOCYTES, Strain/Indicator: THY INCORP, Metabolic Activation: NONE, Method: AUTORADIOGRAPHY) is “active; positive”.

Consider `CC12OOC1(C)c1ccc3cccnc3c1O2` (stereo unspecified), for which the mutagenic call under setting [3] was “inactive; negative”.

Consider `CC(=O)Nc1cc2c(cc1O)-c1ccccc1C2`, for which, under setting [2], the mutagenic call is “inactive; negative”.

For `CC(C)(CO)[C@@H](O)C(=O)NCCCO`, the mutagenic call under setting [1] is “inactive; negative”; the mutagenic call under setting [2] is “inactive; negative”; the mutagenic call under setting [4] was “inactive; negative”; the mutagenic call under setting [6] is “inactive; negative”; the mutagenic call under setting [7] is “inactive; negative”; the mutagenic call (Test System: AMES SALMONELLA TYPHIMURIUM, Strain/Indicator: TA1535, Metabolic Activation: RAT, LIVER, S-9, AROCLOR 1254, Method: STANDARD PLATE) was “inactive; negative”. Besides, the mutagenic call under setting [8] was “inactive; negative”; the mutagenic call (Test System: AMES SALMONELLA TYPHIMURIUM, Strain/Indicator: TA1537, Metabolic Activation: RAT, LIVER, S-9, AROCLOR 1254, Method: STANDARD PLATE) is “inactive; negative”; the mutagenic call under setting [9] is “inactive; negative”; the mutagenic call (Test System: AMES SALMONELLA TYPHIMURIUM, Strain/Indicator: TA1538, Metabolic Activation: RAT, LIVER, S-9, AROCLOR 1254, Method: STANDARD PLATE) is “inactive; negative”; the mutagenic call under setting [10] is “inactive; negative”; the mutagenic call (Test System: E. COLI, Strain/Indicator: WP2, Metabolic Activation: RAT, LIVER, S-9, AROCLOR 1254, Method: STANDARD PLATE) is “inactive; negative”.
